In patent publication US8728442B2, “Method of controlling the growth of microorganisms by a composition containing isolated or in vitro synthesized nitrosoamides” (Bayer CropScience LP, priority 2009, dated 2014):
≈ marks a conversion by molar mass, not a printed value. Read-outs that look alike come from different tables or passages of the source.

Experiments:
Penicillium expansum = assay: Fungicidal activity, fumigation of Penicillium expansum spore plates in sealed 6 L containers; format: cell-based; conditions: 24 h exposure, further 48 h incubation; for MIC: Penicillium expansum, 24 h
Method: Experiments were conducted to determine the fungicidal activity of several compounds of the invention using Penicillium expansum as the test organism.
Plates of potato dextrose agar were streaked with a standard culture of Penicillium expansum spores (0.1 ml of a 2×10^5 cfu/ml) and placed in sealed plastic containers (nominal volume 6 liters). The containers (Rubbermaid) were fitted with a small fan (Radio Shack 12VDC) in the lids to ensure good distribution of the test compounds. The plates were exposed to different volumes (2.5 μl, 5 μl, 10 μl, 20 μl, 40 μl, 80 μl, or 120 μl) of standard solutions (1.0 to 4.0 mg/ml) of tested compounds in ethanol, under ambient conditions. After exposing for 24 h, the plates were removed and incubated for a further 48 h, at ambient temperature, and then monitored for growth of the test organism by visual observation.
The following tables provide summary results of three separate studies to determine the minimum amounts of the compounds needed to produce 100% inhibition of growth of the test organism. Results are expressed as minimal volumes (μl/6 L) and amounts (μg/L) required to produce 100% inhibition.

[1] = system: Staphylococcus aureus (MRSA) (ATCC 33591); assay: MIC and MBC of Compound 1 and analogs, macrodilution; conditions: for MIC: 19 h; for MBC: 25 h
[2] = Experiment #2, read-out: Amount for 100% inhibition (μg compound/L air)
[3] = Experiment #4, read-out: Amount for 100% inhibition (μg compound/L air)

SMILES | MIC [1] | MBC [1] | also measured
CC(=O)N(N=O)C1CC1 [Compound 14, N-cyclopropyl-N-nitrosoacetamide] | – | – | MIC (Penicillium expansum; Experiment #1, read-out: Amount for 100% inhibition (μg compound/L air)): 0.0278 µg/mL (≈ 0.217 µM)
CC(=O)N(N=O)C(C)C [Compound 16, N-isopropyl-N-nitrosoacetamide] | – | – | MIC (Penicillium expansum; [2]): > 0.0806 µg/mL; MIC (Penicillium expansum; read-out: Amount for 100% inhibition (μg compound/L air), Experiment #1): 0.025 µg/mL (≈ 0.192 µM)
O=NN1CCCCC1=O [Compound 17, 1-nitrosopiperidine-2-one] | – | – | MIC (Penicillium expansum; Experiment #3, read-out: Amount for 100% inhibition (μg compound/L air)): > 0.0036 µg/mL
O=NN1CCCC1=O [Compound 18, 1-nitrosopyrrolidin-2-one] | – | – | MIC (Penicillium expansum; [2]): > 0.084 µg/mL; MIC (Penicillium expansum; Experiment #6, read-out: Amount for 100% inhibition (μg compound/L air)): > 0.0163 µg/mL
CC(C)CC(=O)N(C)N=O [Compound 19, N-3-dimethyl-N-nitrosobutanamide] | – | – | Amount for 100% inhibition (μg compound/L air) (Penicillium expansum; Experiment #5): >15.5 μg compound/L air
CCC(=O)N(C)N=O [Compound 20, N-methyl-N-nitrosopropanamide] | – | – | MIC (Penicillium expansum; [3]): 0.0075 µg/mL (≈ 0.0646 µM)
CCCCC(=O)N(C)N=O [Compound 21, N-methyl-N-nitrosopentanamide] | – | – | MIC (Penicillium expansum; [3]): 0.0163 µg/mL (≈ 0.113 µM)
CCC(C)C(=O)N(C)N=O (stereo not shown) [Compound 22, N,2-dimethyl-N-nitrosobutanamide] | – | – | MIC (Penicillium expansum; Experiment #5, read-out: Amount for 100% inhibition (μg compound/L air)): > 0.0152 µg/mL
COCC(=O)N(C)N=O [drawing 50] | 25 µg/mL | > 50 µg/mL | –
C=CC(=O)N(C)N=O [drawing 51] | > 50 µg/mL | > 50 µg/mL | –
C/C=C/C(=O)N(C)N=O [drawing 52] | 6.25 µg/mL | 25 µg/mL | –
CCC(=O)N(C)N=O [drawing 53] | 12.5 µg/mL | 25 µg/mL | –
CCCCCCC(=O)N(C)N=O [drawing 54] | 6.25 µg/mL | 25 µg/mL | –
CC(C)CC(=O)N(C)N=O [drawing 55] | 0.78 µg/mL | 25 µg/mL | –
